Results as given in ChEMBL document CHEMBL1201862, “PubChem BioAssay data set” (2004).
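In this assay, cells in 96-well plates receive the compound at five concentrations for 48 hours. Endpoints are linearly interpolated between the surrounding concentrations. GI50 is the concentration that inhibits growth by half.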 Calls of active or inactive are those of the source. No stated cut-off is given here; in the data, active = GI50 up to about 1.1 µM and inactive = higher.

Tests used:
Experiment in all cases: NCI-60 cell line screen, 48 h
[1] = tested on: HCT-15
[2] = tested on: OVCAR-8
[3] = tested on: PC-3
[4] = tested on: SF-268
[5] = tested on: U-251
[6] = tested on: UACC-62
[7] = tested on: HL-60
[8] = tested on: SF-295
[9] = tested on: Hs-578T
[10] = tested on: UO-31
[11] = tested on: A549
[12] = tested on: SK-OV-3
[13] = tested on: ACHN
[14] = tested on: OVCAR-3
[15] = tested on: NCI-H23
[16] = tested on: SF-539
[17] = tested on: HOP-92
[18] = tested on: HCC 2998
[19] = tested on: A498

SMILES | GI50 [1] | GI50 [2] | GI50 [3] | GI50 [4] | GI50 [5] | GI50 [6] | GI50 [7] | GI50 [8] | GI50 [9] | GI50 [10] | GI50 [11] | GI50 [12] | GI50 [13] | GI50 [14] | GI50 [15] | GI50 [16] | GI50 [17] | GI50 [18] | GI50 [19]
COc1ccc(C2Oc3ccc(Cl)cc3C=C2[N+](=O)[O-])cc1 (stereo unspecified) | > 100 µM | > 100 µM (inactive) | > 100 µM (inactive) | > 100 µM (inactive) | > 100 µM (inactive) | > 100 µM (inactive) | > 100 µM (inactive) | > 100 µM (inactive) | > 100 µM (inactive) | > 100 µM (inactive) | > 100 µM (inactive) | > 100 µM (inactive) | > 100 µM (inactive) | > 100 µM (inactive) | > 100 µM (inactive) |  |  |  | 
Cc1nc(-c2cc3ccccc3oc2=O)cs1 | > 100 µM | 47 µM (inactive) | > 100 µM (inactive) | 42.9 µM (inactive) | 32 µM (inactive) | 31.3 µM (inactive) | > 100 µM (inactive) | 35.5 µM (inactive) | 18.4 µM (inactive) | > 100 µM (inactive) | > 100 µM (inactive) | > 100 µM (inactive) | 52.5 µM (inactive) |  |  | 70 µM (inactive) | 19 µM (inactive) | > 100 µM (inactive) | 
CNC(=O)CCCNC(=O)CCCCC(=O)N(C)C |  | > 100 µM (inactive) | > 100 µM (inactive) | > 100 µM (inactive) | > 100 µM (inactive) | > 100 µM (inactive) |  | > 100 µM (inactive) |  | > 100 µM (inactive) | > 100 µM (inactive) | > 100 µM (inactive) | > 100 µM (inactive) | > 100 µM (inactive) | > 100 µM (inactive) | > 100 µM (inactive) |  |  | > 100 µM (inactive)
CN(C)c1ccc(/C=N/c2ccc(-c3nc4ccccc4s3)cc2)cc1 | 32.1 µM | 39.5 µM (inactive) | 22.4 µM (inactive) |  | 29.2 µM (inactive) | 8.59 µM (inactive) | 0.0408 µM (active) | 4.54 µM (inactive) |  | 43.8 µM (inactive) | 39.7 µM (inactive) | 36.8 µM (inactive) | 17.4 µM (inactive) | 15.9 µM (inactive) | 29.9 µM (inactive) | 52.8 µM (inactive) | 22.4 µM (inactive) | 20.8 µM (inactive) | 10.2 µM (inactive)
CCCC(CCC(N)=O)(CCC(N)=O)[N+](=O)[O-] | > 100 µM | > 100 µM (inactive) | > 100 µM (inactive) | > 100 µM (inactive) | > 100 µM (inactive) | > 100 µM (inactive) | > 100 µM (inactive) | > 100 µM (inactive) | > 100 µM (inactive) | > 100 µM (inactive) | > 100 µM (inactive) | > 100 µM (inactive) | > 100 µM (inactive) |  | > 100 µM (inactive) | > 100 µM (inactive) | > 100 µM (inactive) |  | 
O=C(/C=C/c1ccc(OCCCOc2ccc(/C=C/C(=O)c3ccccc3)cc2)cc1)c1ccccc1 | > 100 µM | > 100 µM (inactive) |  | > 100 µM (inactive) | > 10 µM (inactive) | > 100 µM (inactive) | > 100 µM (inactive) | > 100 µM (inactive) |  | > 100 µM (inactive) | > 100 µM (inactive) |  | > 100 µM (inactive) | > 100 µM (inactive) | > 100 µM (inactive) | > 100 µM (inactive) |  | > 100 µM (inactive) | > 100 µM (inactive)
Cc1cc2c(-c3ccccc3)cc(=O)[nH]c2cc1N | > 100 µM | > 100 µM (inactive) | > 100 µM (inactive) |  | > 100 µM (inactive) | > 100 µM (inactive) |  | > 100 µM (inactive) |  | > 100 µM (inactive) | > 100 µM (inactive) |  | > 100 µM (inactive) | > 100 µM (inactive) | > 100 µM (inactive) | > 100 µM (inactive) | > 100 µM (inactive) | > 100 µM (inactive) | > 100 µM (inactive)
COc1ccc(/C=c2\c(=O)[nH]c3nc4ccccc4c(=O)n23)cc1 | 64 µM | > 100 µM (inactive) | > 100 µM (inactive) | > 100 µM (inactive) | > 100 µM (inactive) | 42 µM (inactive) | 36.2 µM (inactive) | > 100 µM (inactive) | > 100 µM (inactive) | 44.7 µM (inactive) | 91.4 µM (inactive) | > 100 µM (inactive) | > 100 µM (inactive) | 81.5 µM (inactive) | 73.8 µM (inactive) | 46.5 µM (inactive) | 64.7 µM (inactive) | 80.5 µM (inactive) | 
COCc1nc2c(OC)c(-c3nc4ccc(N5CCN(C)CC5)nc4[nH]3)cc(OC)c2n1C | 40.9 µM | 33.9 µM (inactive) | 21.2 µM (inactive) | 45.2 µM (inactive) | 21.7 µM (inactive) | 20.7 µM (inactive) | 17.4 µM (inactive) | 32.1 µM (inactive) | 55.3 µM (inactive) | 22 µM (inactive) | 35.7 µM (inactive) | 66.5 µM (inactive) | 17.5 µM (inactive) | 53.6 µM (inactive) | 58.3 µM (inactive) | 12.3 µM (inactive) | > 100 µM (inactive) | 14.4 µM (inactive) | 
CC1(C)O[C@@H]([C@H](O)CO)[C@H](O)[C@@H](C2SCCCS2)O1 | > 100 µM | > 100 µM (inactive) | > 100 µM (inactive) | > 100 µM (inactive) | > 100 µM (inactive) | > 100 µM (inactive) |  | > 100 µM (inactive) |  | > 100 µM (inactive) | > 100 µM (inactive) | > 100 µM (inactive) | > 100 µM (inactive) | > 100 µM (inactive) | > 100 µM (inactive) | > 100 µM (inactive) | 34.4 µM (inactive) | > 100 µM (inactive) | 59.8 µM (inactive)
N#CC1(C#N)NC(c2cccnc2)C(C#N)(C#N)NC1c1cccnc1 (stereo unspecified) | > 100 µM | > 100 µM (inactive) | > 100 µM (inactive) | > 100 µM (inactive) | > 100 µM (inactive) | > 100 µM (inactive) | > 100 µM (inactive) | > 100 µM (inactive) |  |  | > 100 µM (inactive) | > 100 µM (inactive) |  | > 100 µM (inactive) | > 100 µM (inactive) | > 100 µM (inactive) | > 100 µM (inactive) | > 100 µM (inactive) | > 100 µM (inactive)
Nc1c(C(=O)c2ccc(Cl)c(Cl)c2)[nH]c(NCc2ccccc2)c1C(=S)Nc1ccccc1 | 2.51 µM | 14.7 µM (inactive) | 13.8 µM (inactive) | 14.1 µM (inactive) | 3.96 µM (inactive) | 14.3 µM (inactive) | 19.1 µM (inactive) | 3.48 µM (inactive) |  | 6.7 µM (inactive) | 5.15 µM (inactive) | 17.2 µM (inactive) | 12.2 µM (inactive) | 17.5 µM (inactive) | 18.2 µM (inactive) | 2.68 µM (inactive) |  | 1.74 µM (inactive) | 15.3 µM (inactive)
CSc1nc(=O)cnn1C | > 100 µM | > 100 µM (inactive) | > 100 µM (inactive) | > 100 µM (inactive) | > 100 µM (inactive) | > 100 µM (inactive) |  | > 100 µM (inactive) | > 100 µM (inactive) | > 100 µM (inactive) | > 100 µM (inactive) | > 100 µM (inactive) | > 100 µM (inactive) | > 100 µM (inactive) | > 100 µM (inactive) |  |  | > 100 µM (inactive) | 
CSc1nc2[nH]c(=O)c(C)nc2c(=O)[nH]1 | > 100 µM | > 100 µM (inactive) |  | > 100 µM (inactive) | > 100 µM (inactive) | > 100 µM (inactive) | > 100 µM (inactive) | > 100 µM (inactive) |  | > 100 µM (inactive) | > 100 µM (inactive) | > 100 µM (inactive) | > 100 µM (inactive) | > 100 µM (inactive) | > 100 µM (inactive) |  | > 100 µM (inactive) | > 100 µM (inactive) | > 100 µM (inactive)
O=c1[nH]c(=S)c2cc3c(=S)[nH]c(=O)n(CCO)c3nc2n1CCO | > 100 µM | > 100 µM (inactive) | > 100 µM (inactive) | > 100 µM (inactive) | > 100 µM (inactive) |  |  | > 100 µM (inactive) |  | > 100 µM (inactive) | > 100 µM (inactive) | > 100 µM (inactive) | > 100 µM (inactive) | > 100 µM (inactive) | > 100 µM (inactive) | > 100 µM (inactive) | > 100 µM (inactive) | > 100 µM (inactive) | > 100 µM (inactive)
CC(=O)Nc1ccc(/N=N\c2c(O)c(S(=O)(=O)O)cc3cc(S(=O)(=O)O)ccc23)cc1 | > 100 µM | > 100 µM (inactive) | > 100 µM (inactive) | > 100 µM (inactive) | > 100 µM (inactive) | > 100 µM (inactive) |  | > 100 µM (inactive) | > 100 µM (inactive) | > 100 µM (inactive) | > 100 µM (inactive) | > 100 µM (inactive) | > 100 µM (inactive) | > 100 µM (inactive) | > 100 µM (inactive) |  | > 100 µM (inactive) |  | 
COC(=O)C1C(=O)O[C@@H](c2ccc(OC)cc2)C1C(=O)OC (stereo partly specified) |  | > 100 µM (inactive) |  | > 100 µM (inactive) | > 100 µM (inactive) | > 100 µM (inactive) |  | > 100 µM (inactive) |  | > 100 µM (inactive) | > 100 µM (inactive) | > 100 µM (inactive) | > 100 µM (inactive) | > 100 µM (inactive) | > 100 µM (inactive) | > 100 µM (inactive) | > 100 µM (inactive) | > 100 µM (inactive) | 52.4 µM (inactive)
